{"source": "patent US11458163B2", "about": "“Platinum(IV) conjugates and methods of use” (priority 2019, dated 2022)", "key": {"[1]": {"details": "cited from earlier work"}, "calreticulin (CRT)": {"tested_on": "calreticulin (CRT)", "assay": "Calreticulin translocation in AT84 cells transfected with mouse CRT-HaloTag-KDEL fusion protein", "type": "cell-based", "details": "500 μM, 12-15 hours (overnight)", "source_text": "Plasmid: The full cDNA sequence of the insert was published by Golden et al. (21) and codes for a mouse calreticulin-HaloTag®-KDEL fusion protein. The cDNA sequence includes Mus musculus calreticulin (Accession BC003453, Version BC003453.1, CDS 37-1286), the HaloTag® vector (Accession HM157289, Version HM157289.1, CDS 197-1081), and a KDEL sequence. This cDNA sequence was inserted into a mammalian expression vector, pD643-Rc, by DNA2.0 (now ATUM, Newark, Calif.). The vector includes a CayenneRFP reporter protein (Ex:554 nm/Em:590 nm) used to visualize positively transfected cells.\nAT84 cells were plated in 6-well culture plates and allowed to grow to ˜90% confluence. Cells were transfected with a plasmid containing a mouse calreticulin-HaloTag®-KDEL fusion protein and a CayenneRFP reporter protein using lipofectamine (Invitrogen, Carlsbad, Calif.). Five microliters of lipofectamine was added to 150 μl Opti-MEM (Gibco, Thermo Fisher Scientific, Waltham, Mass.). Ten micrograms of plasmid DNA was added to 150 μl Opti-MEM. Both solutions were incubated at room temperature for 5 minutes. DNA solution was added to lipofectamine solution and incubated for 20 minutes at room temperature. During incubation, media on the cells were replaced with serum-free media (2 mL). 250 μl of DNA:lipofectamine solution was added dropwise to each well, which contained 2 mL of serum-free media. […]"}, "[2]": {"tested_on": "AT84 murine head and neck squamous cell carcinoma cell line", "assay": "Anti-proliferation study, AT84 cells (Resazurin Blue)", "type": "cell-based, mouse", "details": "72 hours, n=7-8", "experimental": "AT84 cells were derived from a spontaneous squamous cell carcinoma in the oral mucosa of a C3H mouse (19,20) and were gifted by Aldo Venuti (Regina Elena National Cancer Institute, Rome, Italy). Cells tested negative for interspecies contamination (Idexx BioResearch, CellCheck STR profiling). Cells tested negative for rodent pathogens (Idexx BioResearch, IMPACT I PCR profile). Cells tested negative for Mycoplasm contamination (Lonza, Basel, Switzerland, MycoAlert test kit). Cells were cultured in RPMI-1640 media (Gibco, Thermo Fisher Scientific, Waltham, Mass.) supplemented with 10% FBS (Corning Corning, N.Y.), and 100 U/mL penicillin/100 μg/mL streptomycin (HyClone, Thermo Fisher Scientific, Waltham, Mass.) in a humidified incubator at 37° C. and 5% CO2.\nAT84 cells were maintained in RPMI-1640 media (Gibco) with 10% fetal bovine serum (Corning), and 100 U/mL penicillin/100 μg/mL streptomycin (HyClone) in a humidified incubator at 37° C. and 5% CO2. Cells were seeded into 96-well plates (3,000 cells/well in 90 ul media) and allowed to attach overnight. […] Fluorescence (λex 550 nm, λem 605 nm) was quantified with a SpectraMax Gemini XS plate-reader (Molecular Devices, Sunnyvale, Calif.). […] Data from at least five separate experiments was analyzed using non-linear regression (GraphPad Prism 5.0) to generate […]."}, "calf thymus DNAs": {"tested_on": "calf thymus DNAs", "details": "cited from earlier work"}, "[3]": {"assay": "Ongoing tolerability studies in rabbits", "type": "in vivo", "details": "proposed dose level"}, "AT84 allografts": {"tested_on": "AT84 allografts", "assay": "Immunocompetent tumor model: orthotopic AT84 allografts in C3H mice", "type": "in vivo", "experimental": "Wildtype C3H mice (Charles River Strain 025, 6-8 weeks old, 20-25 g) were used for in vivo tumor studies. Both male and female mice were used in the studies. […] Mice were anesthetized using 5% isoflurane in O2 for 5 minutes. One million AT84 cells in 50 μl PBS were injected subcutaneous (s.c.) into the floor of the mouth via an extra-oral route of C3H mice to obtain orthotopic allograft tumors (19,20). […] Under isoflurane anesthesia, Pt(IV)-toco/HA-toco composition (3 mg/kg on Pt(IV)-toco basis) or vehicle (50 μl hyaluronan-tocopherol, 16.7 mg/mL) was injected intratumoral on days 4, 11, and 18 after the tumor cell injection. Tumor size was calculated: tumor volume (mm^3)=0.52×(width)^2×length, where length is the longer of two perpendicular dimensions."}, "[4]": {"tested_on": "naturally occurring cancers", "assay": "Open-label compassionate-care clinical trial of intralesional therapy in pet dogs", "type": "in vivo, dog", "details": "proposed dose level", "experimental": "An open-label, compassionate-care clinical trial was conducted in pet dogs with various types of cancer to evaluate the feasibility of intralesional delivery of Pt(IV)-toco/HA-toco composition as chemotherapy. The most common types of cancer include squamous cell carcinoma, soft tissue sarcoma, and oral melanoma. Typical exclusion criteria such as small breeds, large tumor burden, short life expectancy, metastatic disease, and certain pre-existing conditions (e.g., Cushing's disease) were not implemented in this study.\nThe reported study was conducted in 18 veterinary hospitals in the Kansas City area. Most pets received either Pt(IV)-toco/HA-toco or HylaPlat treatment at 3-week intervals for up to 10 treatments, ranging from 1 to 17.5 mg/m^2 on cisplatin basis. Clinical chemistry and hematology were obtained before and after each treatment to evaluate the tolerability of the therapy. A physical exam including measurements of tumor(s) was performed approximately every 3-weeks to monitor the response status of the subjects."}, "MDA-1986 xenografts": {"tested_on": "MDA-1986 xenografts", "assay": "Immunodeficient tumor model: orthotopic MDA-1986 xenografts in nude mice", "type": "in vivo", "experimental": "Nude mice (Charles River Ath/nu, 6-8 weeks old, 20-25 g) were used for in vivo tumor studies. Both male and female mice were used in the studies. […] Mice were anesthetized using 5% isoflurane in O2 for 5 minutes. One million MDA-1986 cells in 50 μl PBS were injected subcutaneous into the left cheek of nude mice to obtain orthotopic xenograft tumors (13,15). Treatment began when tumors reached 75 mm^3. Under isoflurane anesthesia, Pt(IV)-toco/HA-toco composition (3 mg/kg on Pt(IV)-toco basis) or vehicle (1.5 MDa hyaluronan, 16.7 mg/mL) was injected intratumoral on days 14, 21, and 28 after the tumor cell injection. Tumor size was calculated using the same equation as stated in the C3H model."}, "[5]": {"details": "last pair of measurements vs control, 3 mg/kg intratumoral once per week for 3 weeks"}}, "note": "Entries after “also recorded” stand apart in the source; their conditions may differ.", "data": [{"compound": "N.N.O=C([O-])C1(C(=O)[O-])CCC1.[Pt+2]", "note": "[carboplatin]", "values": [{"measurement": "safety in cats", "setting": "[1]", "result": "may be safe"}]}, {"compound": "N.N.[Cl][Pt][Cl]", "note": "[cisplatin, Cis-Dichlorodiamine platinum (II)]", "values": [{"measurement": "CRT translocation to the cell surface (indicator of ICD)", "setting": "calreticulin (CRT)", "result": "does not cause CRT translocation to the membrane; also recorded: does not show CRT translocation"}, {"measurement": "safety in cats", "setting": "[1]", "result": "hydrothorax, pulmonary and mediastinal edema"}, {"measurement": "IC50", "setting": "[2]", "result": "3000 ± 260", "unit": "nM"}]}, {"compound": "O=C1[O][Pt]2([NH][C@@H]3CCCC[C@H]3[NH]2)[O]C1=O", "note": "[oxaliplatin, Oxaliplatin]", "values": [{"measurement": "formation of Pt-DNA adducts relative to cisplatin", "setting": "calf thymus DNAs", "result": "approximately one tenth"}, {"measurement": "CRT translocation to the cell surface (indicator of ICD)", "setting": "calreticulin (CRT)", "result": "membrane translocation of CRT is observed; also recorded: show CRT translocation"}]}, {"compound": "Pt(IV)-Su-Gly-Toco [Pt(IV)-toco]", "values": [{"measurement": "dose-limiting toxicities (renal dysfunction, ototoxicity, peripheral neuropathy)", "setting": "[3]", "result": "did not cause any dose-limiting toxicities"}, {"measurement": "tumor volume, mean±SEM, last pair of measurements", "setting": "AT84 allografts; 3 mg/kg on Pt(IV)-toco basis intratumoral, days 4, 11, 18", "result": "1024±129", "unit": "mm^3"}, {"measurement": "survival rate", "setting": "AT84 allografts; by the time all control mice have succumbed", "result": 100, "unit": "%"}, {"measurement": "tumor inhibition", "setting": "AT84 allografts; [5]", "result": 49, "unit": "%"}, {"measurement": "dose-limiting toxicities (renal dysfunction, ototoxicity, peripheral neuropathy)", "setting": "[4]", "result": "did not cause any dose-limiting toxicities"}, {"measurement": "tumor volume, mean SEM, last pair of measurements", "setting": "MDA-1986 xenografts; 3 mg/kg on Pt(IV)-toco basis intratumoral, days 14, 21, 28", "result": "812±150", "unit": "mm^3"}, {"measurement": "tumor inhibition", "setting": "MDA-1986 xenografts; [5]", "result": 43, "unit": "%"}]}]}
